The record followed here is US20140050778A1, “NUCLEIC ACID BINDING COMPOUNDS, METHODS OF MAKING, AND USE THEREOF” (UNIVERSITY OF ROCHESTER, priority 2010, published 2014).

For data set [1], the system named is (CUG)10 RNA (SEQ ID NO: 3). As to the kind of experiment: SPR binding to immobilized biotinylated RNA. As to the method:
(§1) SPR binding measurements were performed on a Biacore-X instrument (Biacore, Inc., Uppsala, Sweden) with two flow channels (FC1 and FC2). 5′-Biotinylated-RNA sequences, with a C6 linker separating the biotin label from the RNA (Integrated DNA Technologies Inc.) were immobilized on streptavidin (Rockland Immunochemicals) functionalized carboxylmethyl dextran coated sensor chips (CM5, G.E. Healthcare) using EDC/NHS (Advanced ChemTech) coupling chemistry. Filtered (0.2μ), degassed and autoclaved HBS-N buffer (0.01M Hepes, pH=7.4, 0.15 M NaCl) was employed as sample and as running buffer for all SPR experiments. A typical protocol for an experiment is as follows: A CM5 sensor chip was allowed to equilibrate to room temperature and then docked into the instrument. Following priming with running buffer, FC1 and FC2 were conditioned by manual injection of 20 μL aqueous NaOH (50 mM) at a flow rate of 30 μL/min. This was repeated 3 times followed by a wash command. Next, the carboxyl groups on the sensor chip surface in both flow cells were activated separately by injecting 60 μL of freshly prepared 1:1 mixture of EDC (0.4 M) and NHS (0.1 M) at a 5 μL/min flow rate followed by a wash. […] After washing, the surface was deactivated with 60 μL injection of ethanolamine (1M, pH=8.5) at 5 μL/min. The flow cells were primed, and the streptavidin surface in FC1 alone was blocked with 30 μL of biotin (20 μM in HBS-N) at 5 μL/min. The RNA (200 nM in running buffer, HBS-N) to be immobilized was unfolded by heating above its predicted melting temperature in a heated block for 2 min and then allowed to refold by cooling gradually to room temperature. The RNA was then immobilized in FC2 alone to response units ranging from 200-1000 RU using a 5 μL/min flow rate. Representative sensorgrams for the immobilization procedure is shown in FIGS. 2A-B. Two 20 μL aliquots of NaCl (0.5 M) were injected at a 30 μL/min flow rate to remove non-specifically bound RNA. The level of RNA immobilized was noted when the baseline was stable, usually after repeated buffer injection followed by a “prime” command. Binding measurements were performed by flowing various concentrations of the compounds to be analyzed over the immobilized RNA and recording the reference-subtracted (FC2−FC1) sensorgrams. For kinetic analysis, at least five sensorgrams corresponding to different concentrations of compound (usually ranging from 0.05-1 μM in HBS-N) were obtained using flow rates of either 60 μL/min or 30 μL/min. The experimental sensorgrams were globally fitted to a 1:1 binding equation (Biaevaluation software) to obtain association rates (ka) and dissociation rates ([…]) as well as equilibrium binding constants (KD). To measure the binding stoichiometry (n), the relations in equations (1-3) below were used: […]
(§2) where RUmax is the maximum resonance response unit at saturation, RURNA is the amount RU of RNA immobilized, n is the stoichiometry, MWcompound and MWRNA are molecular weights of compound and RNA respectively, and RUeq represents the resonance response at steady-state (equilibrium). The response units at equilibrium were subjected to Scatchard binding plots of (r/Cfree vs. r).
This technique allows the association and dissociation rates (ka and kd), equilibrium binding constants (KD), and the binding stoichiometry (n) to be measured in a label-free format (Liu and Wilson, “Quantitative Analysis of Small Molecule-nucleic Acid Interactions with a Biosensor Surface and Surface Plasmon Resonance Detection,” Methods Mol. Biol. 613:1-23 (2010), which is hereby incorporated by reference in its entirety).
A general note: SPR reads the build-up and loss of mass on a sensor chip optically.

The subject of data set [2] is (CAG)10 RNA (SEQ ID NO: 5). As to the kind of experiment: SPR binding to immobilized biotinylated RNA. The protocol: as §1, §2
(§3) The binding characteristics of compounds 3-11 were evaluated against pathogenic CUG^exp RNA and other RNA sequences by SPR. This technique allows the association and dissociation rates (ka and kd), equilibrium binding constants (KD), and the binding stoichiometry (n) to be measured in a label-free format (Liu and Wilson, “Quantitative Analysis of Small Molecule-nucleic Acid Interactions with a Biosensor Surface and Surface Plasmon Resonance Detection,” Methods Mol. Biol. 613:1-23 (2010), which is hereby incorporated by reference in its entirety). […]

The test system of data set [3] is (CCUG)10 RNA (SEQ ID NO: 4). Nature of the data set: SPR binding to immobilized biotinylated RNA. The note with it: (CCUG)10. As to the method:
as §1, §2, §3

In data set [4] the test system is CUG-CAG duplex ("Duplex") (SEQ ID NO: 6). As to the kind of experiment: SPR binding to immobilized biotinylated RNA. Particulars: Duplex. As to the method:
as §1, §2, §3

Data set [5] relates to HIV-1 FSS RNA (SEQ ID NO: 7). As to the kind of experiment: SPR binding to immobilized biotinylated RNA. The protocol:
as §1
where RUmax is the maximum resonance response unit at saturation, RURNA is the amount RU of RNA immobilized, n is the stoichiometry, MWcompound and MWRNA are molecular weights of compound and RNA respectively, and RUeq represents the resonance response at steady-state (equilibrium). The response units at equilibrium were subjected to Scatchard binding plots of (r/Cfree vs. r). […]
SPR and fluorescence titration experiments, performed using the protocol described in Examples 3 and 4 above, except using as the target a highly conserved RNA sequence responsible for regulating the production of the Gag-Pol polyprotein via a −1 ribosomal frameshift, which occurs along a “slippery sequence” in gag-pol mRNA (SEQ ID NO: 7). This “frameshift stimulatory sequence” (or “HIV-1 FSS”) consists of an upper stemloop and a lower stem, separated by a purine bulge in the most common types of HIV (FIG. 19). For the fluorescent titration experiments, the upper stemloop of SEQ ID NO: 7 was employed. Cell uptake and toxicity studies were carried out using human fibroblasts according to Example 5 above.

In data set [6] the test system is mouse C2C12 myoblasts. As to the kind of experiment: Cell permeability by fluorescence microscopy. It is filed as cell-based. Particulars: 12 h, 125 μM, intrinsic fluorescence. The protocol:
For cell permeability studies, human fibroblasts or mouse myoblasts grown to 80% confluence were exposed to compounds for 12 hours in a 96 well tissue culture plate. After removal of the culture media (DMEM, with 10% FBS, 1% pen-strep (GIBCO)) the cells were washed twice with PBS to remove excess compounds. Cells were then imaged while in buffer under a fluorescence microscope (Olympus IX70) in the 96-well plate using a 460 nm emission filter.

For data set [7], the system named is HSA^LR transgenic mice. Nature of the data set: MBNL1-dependent splicing in mouse myotonic dystrophy model (RT-PCR, vastus muscle). The note with it: 40 mg/kg intraperitoneally once per day for 5 days. It is filed as in vivo. As to the method:
Mouse handling and experimental procedures were conducted in accordance with the Association for Assessment and Accreditation of Laboratory Animal Care. […] Age- and gender-matched HSA^LR mice (12-16 weeks old) were injected intraperitoneally with 40 mg/kg of compounds or saline alone once per day for 5 days. Mice were sacrificed one day after the last injection, and vastus muscle was obtained for splicing analysis. RNA extraction, cDNA preparation, and RT-PCR were performed as described previously. The PCR products were electrophoresed on agarose gels for separation, and scanned with a laser fluorimager (Typhoon, GE Healthcare). Quantitative analysis of amplified products was performed by ImageQuant software (Molecular Dynamics). Differences between two groups were evaluated by unpaired Student's t-test. A critical test of a compound's performance is its ability to function in vivo. DM1 has several well-studied mouse models (Gomes-Pereira et al., “Myotonic Dystrophy Mouse Models: Towards Rational Therapy Development,” Trends Mol. Med. 17:506-517 (2011), which is hereby incorporated by reference in its entirety). Compound activity in the HSA^LR mouse model, in which transgenic mice carry a long CTG repeat inserted into the human skeletal actin (HSA) gene in skeletal muscle (Mankodi, “Myotonic Dystrophy in Transgenic Mice Expressing an Expanded CUG Repeat,” Science 289:1769-1772 (2000), which is hereby incorporated by reference in its entirety) was examined. […] They also display aberrant splicing of genes, including Clcn1 and Atp2a1, which are hallmarks of nuclear transcript sequestration.

In data set [8] the target is (CUG)10 RNA. Nature of the data set: Fluorescence titration (benzo[g]quinoline quenching). It is filed as binding. Particulars: (CUG)10, 1 μM compound in HBS-N. The protocol: The benzo[g]quinoline moiety is fluorescent, with excitation and emission maxima at 362 nm and 439 nm respectively in methanol. Fluorescence titration binding measurements were performed on a Cary Eclipse fluorescence spectrophotometer using a 10 mm path-length semimicro quartz fluorescence cell with 400 μL sample holding capacity. Absorbance measurements were carried out on a UV-Visible spectrophotometer (Shimadzu, UV-1601PC) using a 1 mL (1 cm path-length) quartz cell. Spectroscopic grade anhydrous methanol used in the measurement of relative quantum yield of the 2-ethyl benzo[g]quinoline carboxylic acid was purchased from Alfa Aesar and was used without further purification. For these measurements, known procedures were used (Lee and Grissom, “Design, Synthesis, and Characterization of Fluorescent Cobalamin Analogues with High Quantum Efficiencies,” Org. Lett. 11:2499-2502 (2009); Joseph R. Lakowicz, Principles of Fluorescence Spectroscopy, 2nd edition (Kluwer Academic/Plenum Publishers, 1999), which are hereby incorporated by reference in their entirety). Briefly, RNA (10 μM stock) in HBS-N buffer was titrated into a solution of 1 μM compound in HBS-N. After each addition of RNA, ten minutes were allowed for equilibration before recording the change in fluorescence at 468.5 nm. Fluorescence units (“FU”) were then corrected for dilution and the FU after each addition was subtracted from the FU at zero RNA concentration to give AFU. Following saturation, AFU was plotted against RNA concentration using Origin 7 (OriginLab, Inc.), and fitted to a 1:1 Langmuir binding model to obtain apparent dissociation constants (Kn). […]
Selected equilibrium affinities for (CUG)10 were confirmed by fluorescence titration. The quantum yield of the ethylbenzo[g]quinoline carboxylic acid (compound 2), relative to quinine sulfate, was determined to be 0.64 (FIGS. 5A-F). […] Apparent KD values measured in this manner are consistent with those obtained by SPR (Table 6); that they are not identical to SPR-measured values likely results from the differing formats of the two methods. […]

“Also recorded” adds a separate entry of the source.

As for `CCc1nc2cc3ccccc3cc2cc1C(=O)N[C@@H](CCCCN)C(=O)N[C@@H](C/C=C/C[C@H](NC(=O)[C@H](CCCCN)NC(=O)c1cc2cc3ccccc3cc2nc1CC)C(=O)N1CCC[C@H]1C(=O)NCCCN)C(=O)N1CCC[C@H]1C(=O)NCCCN` [Compound 9], the “Residence time (t1/2) for compound binding to RNA” value in data set [1] ((CUG)10) amounted to 4.0527 min; in data set [2] it was 3.3575 min; in data set [3] it was 4.262 min; in data set [4] it was 6.2097 min; in data set [5], 5.775 min. The “Off-rates (koff)” value worked out at 0.00285 s⁻¹ in data set [1] (SPR, (CUG)10); 0.00344 s⁻¹ in data set [2] (SPR); 0.00271 s⁻¹ in data set [3] (SPR); 0.00186 s⁻¹ in data set [4] (SPR); 0.002 s⁻¹ in data set [5] (SPR). For the same compound, the “On-rates (kon)” value in data set [1] (SPR, (CUG)10) stood at 24200 M⁻¹ s⁻¹; in data set [2] (SPR) it was 15700 M⁻¹ s⁻¹; in data set [3] (SPR) it was 19900 M⁻¹ s⁻¹; in data set [4] (SPR), 24300 M⁻¹ s⁻¹; in data set [5] (SPR) it was 32300 M⁻¹ s⁻¹. The “apparent KD” value in data set [1] (SPR, (CUG)10) is “reduced affinity”. Further, the sequence selectivity entry in data set [1] (SPR, CUG repeats versus other RNAs) was “no selectivity for CUG or CCUG repeats relative to duplex CUG-CAG or HIV-1 FSS RNAs”. In addition, in data set [6], the “cell membrane penetration / localization” value is “significantly less able to enter cells than compounds 4, 5, or 11”. Moreover, the “improvement of Clcn1 splicing” value in data set [7] is reported as “not”.

In the case of `C=CC[C@H](NC(=O)[C@@H]1CCCN1C(=O)c1cc2cc3ccccc3cc2nc1CC)C(=O)N[C@@H](CCCCN)C(=O)NCCCN` [Compound 3], the “apparent KD” value in data set [1] (SPR, (CUG)10) was “no measurable affinity; also recorded: complete lack of binding”; in data set [8], “No binding”.
